Reference: ChEMBL document CHEMBL5346972, “Discovery of HDAC6, HDAC8, and 6/8 Inhibitors and Development of Cell-Based Drug Screening Models for the Treatment of TGF-β-Induced Idiopathic Pulmonary Fibrosis” (J Med Chem, 2023)

Experiments:
NIH3T3 [1] = assay: Antiproliferative activity against mouse NIH3T3 cells assessed as reduction in cell viability incubated for 3 days by CCK-8 assay; type: functional, cell-based; details: NIH3T3, 72 h
NIH3T3 [2] = assay: Antiproliferative activity against mouse NIH3T3 cells assessed as reduction in cell viability by measuring optimal working concentration incubated for 3 days by CCK-8 assay relative to control; type: functional; details: time 3 day
Histone deacetylase 9 = Histone deacetylase 9 (Homo sapiens, UniProt Q9UKV0); assay: Inhibition of human HDAC9 expressed in baculovirus expression system in Sf9 cells using Boc-Lys(trifluoroacetyl)-AMC fluorogenic peptide as substrate and measured after 2 hrs by fluorescence based analysis
Chain of Histone deacetylase 9 (Q9UKV0 whole entry, the tested form may be a part): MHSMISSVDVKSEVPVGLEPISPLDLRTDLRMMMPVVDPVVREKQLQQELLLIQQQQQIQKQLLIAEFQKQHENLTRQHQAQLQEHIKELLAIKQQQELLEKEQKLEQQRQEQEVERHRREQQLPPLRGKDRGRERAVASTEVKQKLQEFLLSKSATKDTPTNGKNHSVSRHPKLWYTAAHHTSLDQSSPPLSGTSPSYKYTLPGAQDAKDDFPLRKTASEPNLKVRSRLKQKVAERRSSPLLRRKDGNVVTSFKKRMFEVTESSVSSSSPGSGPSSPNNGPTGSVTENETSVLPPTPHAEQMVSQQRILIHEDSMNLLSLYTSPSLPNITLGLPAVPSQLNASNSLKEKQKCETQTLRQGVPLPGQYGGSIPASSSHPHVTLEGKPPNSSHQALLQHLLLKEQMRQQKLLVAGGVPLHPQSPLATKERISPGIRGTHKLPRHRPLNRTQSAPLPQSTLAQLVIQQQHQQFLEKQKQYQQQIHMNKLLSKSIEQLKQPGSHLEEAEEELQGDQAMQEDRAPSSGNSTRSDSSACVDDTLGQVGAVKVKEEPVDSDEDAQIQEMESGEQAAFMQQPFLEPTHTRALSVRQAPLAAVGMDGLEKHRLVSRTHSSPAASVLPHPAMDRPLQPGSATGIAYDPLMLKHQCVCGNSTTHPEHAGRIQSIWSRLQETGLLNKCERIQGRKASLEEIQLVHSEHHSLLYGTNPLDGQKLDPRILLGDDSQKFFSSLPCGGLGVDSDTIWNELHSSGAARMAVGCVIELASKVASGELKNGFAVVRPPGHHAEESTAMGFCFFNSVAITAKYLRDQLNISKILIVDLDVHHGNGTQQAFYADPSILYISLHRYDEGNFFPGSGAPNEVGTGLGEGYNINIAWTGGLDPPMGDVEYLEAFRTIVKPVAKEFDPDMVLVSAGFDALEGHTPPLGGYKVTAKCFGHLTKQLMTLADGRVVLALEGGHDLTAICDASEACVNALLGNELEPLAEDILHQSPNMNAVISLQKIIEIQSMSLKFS

Histone deacetylase 3 = Histone deacetylase 3 (Homo sapiens, UniProt O15379); assay: Inhibition of human HDAC3 expressed in baculovirus expression system in Sf9 cells using RHKKAc (379 to 382 residues) fluorogenic peptide as substrate and measured after 2 hrs by fluorescence based analysis
Chain of Histone deacetylase 3 (O15379 whole entry, the tested form may be a part): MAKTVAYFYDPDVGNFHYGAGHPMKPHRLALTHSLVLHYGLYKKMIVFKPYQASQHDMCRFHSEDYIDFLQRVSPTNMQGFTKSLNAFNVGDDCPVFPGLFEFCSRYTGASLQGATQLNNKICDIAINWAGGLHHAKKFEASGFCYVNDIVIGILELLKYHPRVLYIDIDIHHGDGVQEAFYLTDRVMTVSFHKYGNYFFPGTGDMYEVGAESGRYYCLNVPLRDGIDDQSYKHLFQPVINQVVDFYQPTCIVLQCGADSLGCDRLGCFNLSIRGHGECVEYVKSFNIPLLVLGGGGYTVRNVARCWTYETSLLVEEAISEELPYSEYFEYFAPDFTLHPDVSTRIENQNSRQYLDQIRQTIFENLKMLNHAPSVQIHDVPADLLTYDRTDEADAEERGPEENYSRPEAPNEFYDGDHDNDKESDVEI

in vitro [3] = details: human
[4] = biological target: T1, Protein deacetylase HDAC6 (Homo sapiens, UniProt Q9UBN7); assay: Inhibition of human HDAC6 expressed in baculovirus expression system in Sf9 cells using RHKKAc (379 to 382 residues) fluorogenic peptide as substrate and measured after 2 hrs by fluorescence based analysis
T1 sequence (Q9UBN7 whole entry): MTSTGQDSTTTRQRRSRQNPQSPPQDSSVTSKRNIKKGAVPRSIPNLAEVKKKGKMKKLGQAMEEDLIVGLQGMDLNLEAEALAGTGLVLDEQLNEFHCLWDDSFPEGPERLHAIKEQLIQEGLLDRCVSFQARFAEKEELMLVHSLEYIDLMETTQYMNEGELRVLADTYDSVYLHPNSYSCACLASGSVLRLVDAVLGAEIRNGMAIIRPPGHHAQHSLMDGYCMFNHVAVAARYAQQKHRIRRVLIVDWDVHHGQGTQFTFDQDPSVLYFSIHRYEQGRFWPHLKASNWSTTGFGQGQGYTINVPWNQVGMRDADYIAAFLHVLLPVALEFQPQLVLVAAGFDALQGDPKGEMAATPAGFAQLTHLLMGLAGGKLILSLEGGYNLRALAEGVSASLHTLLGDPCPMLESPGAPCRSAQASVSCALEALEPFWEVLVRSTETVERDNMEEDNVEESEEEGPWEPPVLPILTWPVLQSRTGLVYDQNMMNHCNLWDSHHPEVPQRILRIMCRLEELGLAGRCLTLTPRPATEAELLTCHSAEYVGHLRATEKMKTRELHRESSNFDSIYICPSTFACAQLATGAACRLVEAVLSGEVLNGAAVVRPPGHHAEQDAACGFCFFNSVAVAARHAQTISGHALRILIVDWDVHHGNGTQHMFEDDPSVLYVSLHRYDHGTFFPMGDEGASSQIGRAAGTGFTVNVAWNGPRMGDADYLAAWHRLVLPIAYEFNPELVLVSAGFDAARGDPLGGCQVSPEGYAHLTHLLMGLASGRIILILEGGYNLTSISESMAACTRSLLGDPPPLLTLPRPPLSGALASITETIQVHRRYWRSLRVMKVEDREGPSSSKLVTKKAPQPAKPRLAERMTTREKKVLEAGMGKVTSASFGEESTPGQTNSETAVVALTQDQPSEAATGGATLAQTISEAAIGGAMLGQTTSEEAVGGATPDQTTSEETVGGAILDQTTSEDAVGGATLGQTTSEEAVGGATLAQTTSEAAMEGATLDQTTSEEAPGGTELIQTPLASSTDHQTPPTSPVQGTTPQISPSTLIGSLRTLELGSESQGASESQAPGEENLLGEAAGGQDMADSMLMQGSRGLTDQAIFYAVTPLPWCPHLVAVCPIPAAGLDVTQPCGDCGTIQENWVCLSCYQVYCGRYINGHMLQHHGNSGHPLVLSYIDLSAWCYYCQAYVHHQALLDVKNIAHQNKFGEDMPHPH

Histone deacetylase 4 = Histone deacetylase 4 (Homo sapiens, UniProt P56524); assay: Inhibition of human HDAC4 expressed in baculovirus expression system in Sf9 cells using Boc-Lys(trifluoroacetyl)-AMC fluorogenic peptide as substrate and measured after 2 hrs by fluorescence based analysis
Chain of Histone deacetylase 4 (P56524 whole entry): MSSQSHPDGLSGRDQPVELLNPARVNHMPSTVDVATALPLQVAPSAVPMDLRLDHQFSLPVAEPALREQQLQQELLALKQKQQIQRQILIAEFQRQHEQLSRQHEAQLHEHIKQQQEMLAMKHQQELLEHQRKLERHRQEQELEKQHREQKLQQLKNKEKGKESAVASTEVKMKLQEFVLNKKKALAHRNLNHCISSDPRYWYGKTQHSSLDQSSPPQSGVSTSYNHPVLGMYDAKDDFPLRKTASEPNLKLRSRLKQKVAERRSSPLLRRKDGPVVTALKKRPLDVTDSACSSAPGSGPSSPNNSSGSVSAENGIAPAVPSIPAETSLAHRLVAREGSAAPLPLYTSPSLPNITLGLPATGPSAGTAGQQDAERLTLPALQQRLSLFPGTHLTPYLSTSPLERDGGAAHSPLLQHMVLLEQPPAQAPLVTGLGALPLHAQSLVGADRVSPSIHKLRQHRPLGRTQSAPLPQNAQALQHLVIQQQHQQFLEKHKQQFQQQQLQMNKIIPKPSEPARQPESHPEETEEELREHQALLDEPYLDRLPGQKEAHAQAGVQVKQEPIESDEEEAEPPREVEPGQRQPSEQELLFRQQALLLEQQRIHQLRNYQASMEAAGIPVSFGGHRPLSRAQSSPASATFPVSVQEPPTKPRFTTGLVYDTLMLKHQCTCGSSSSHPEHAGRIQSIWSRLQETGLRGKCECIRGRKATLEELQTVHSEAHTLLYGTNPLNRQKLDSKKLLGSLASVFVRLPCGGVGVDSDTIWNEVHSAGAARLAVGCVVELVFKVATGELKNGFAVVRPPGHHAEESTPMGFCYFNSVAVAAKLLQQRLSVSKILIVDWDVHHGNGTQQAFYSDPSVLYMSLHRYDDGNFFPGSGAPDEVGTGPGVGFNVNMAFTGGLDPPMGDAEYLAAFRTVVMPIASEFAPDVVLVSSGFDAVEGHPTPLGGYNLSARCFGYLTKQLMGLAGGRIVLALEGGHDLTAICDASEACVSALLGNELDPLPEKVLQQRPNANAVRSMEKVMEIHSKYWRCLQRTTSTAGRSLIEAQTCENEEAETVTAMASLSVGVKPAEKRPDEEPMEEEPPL

Histone deacetylase 11 = biological target: T2, Histone deacetylase 11 (Homo sapiens, UniProt Q96DB2); assay: Inhibition of human HDAC11 expressed in baculovirus expression system in Sf9 cells using Boc-Lys(trifluoroacetyl)-AMC fluorogenic peptide as substrate and measured after 2 hrs by fluorescence based analysis
T2 sequence (Q96DB2 whole entry): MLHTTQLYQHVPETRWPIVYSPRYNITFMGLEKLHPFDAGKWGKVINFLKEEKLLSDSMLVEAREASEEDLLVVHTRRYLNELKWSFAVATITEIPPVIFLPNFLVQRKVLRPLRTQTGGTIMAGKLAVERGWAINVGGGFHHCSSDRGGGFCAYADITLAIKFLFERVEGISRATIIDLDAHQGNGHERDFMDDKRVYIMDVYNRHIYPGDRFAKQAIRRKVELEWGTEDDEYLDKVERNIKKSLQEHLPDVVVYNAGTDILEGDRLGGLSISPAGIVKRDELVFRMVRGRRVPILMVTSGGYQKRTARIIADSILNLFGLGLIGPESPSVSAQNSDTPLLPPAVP

[5] = Antiproliferative activity against human Pulmonary fibroblast cells assessed as reduction in cell viability by measuring optimal working concentration incubated for 3 days by CCK-8 assay; type: functional; details: time 3 day
[6] = Metabolic stability in human liver microsomes assessed as parent compound remaining at 200 uM preincubated for 5 mins followed by NADPH and measured at 60 mins by LC-MS/MS analysis
in vitro [7] = details: human; remark: listed apart in the source
Histone deacetylase 8 = biological target: T3, Histone deacetylase 8 (Homo sapiens, UniProt Q9BY41); assay: Inhibition of human HDAC8 expressed in baculovirus expression system in Sf9 cells using RHKAcKAc (379 to 382 residues) fluorogenic peptide as substrate and measured after 2 hrs by fluorescence based analysis
T3 sequence (Q9BY41 whole entry): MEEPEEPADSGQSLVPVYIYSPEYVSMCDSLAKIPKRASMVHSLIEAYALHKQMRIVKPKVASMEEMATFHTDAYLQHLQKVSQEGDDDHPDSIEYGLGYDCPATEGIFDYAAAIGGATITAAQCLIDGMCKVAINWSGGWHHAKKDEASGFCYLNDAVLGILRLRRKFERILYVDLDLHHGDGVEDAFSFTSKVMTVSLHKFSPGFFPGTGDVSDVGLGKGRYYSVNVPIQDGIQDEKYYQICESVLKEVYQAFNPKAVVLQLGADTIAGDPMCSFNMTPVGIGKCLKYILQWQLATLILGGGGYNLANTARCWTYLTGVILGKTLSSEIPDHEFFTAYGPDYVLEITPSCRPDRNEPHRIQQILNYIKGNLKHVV

Histone deacetylase 5 = Histone deacetylase 5 (Homo sapiens, UniProt Q9UQL6); assay: Inhibition of human HDAC5 expressed in baculovirus expression system in Sf9 cells using Boc-Lys(trifluoroacetyl)-AMC fluorogenic peptide as substrate and measured after 2 hrs by fluorescence based analysis
Chain of Histone deacetylase 5 (Q9UQL6 whole entry, the tested form may be a part): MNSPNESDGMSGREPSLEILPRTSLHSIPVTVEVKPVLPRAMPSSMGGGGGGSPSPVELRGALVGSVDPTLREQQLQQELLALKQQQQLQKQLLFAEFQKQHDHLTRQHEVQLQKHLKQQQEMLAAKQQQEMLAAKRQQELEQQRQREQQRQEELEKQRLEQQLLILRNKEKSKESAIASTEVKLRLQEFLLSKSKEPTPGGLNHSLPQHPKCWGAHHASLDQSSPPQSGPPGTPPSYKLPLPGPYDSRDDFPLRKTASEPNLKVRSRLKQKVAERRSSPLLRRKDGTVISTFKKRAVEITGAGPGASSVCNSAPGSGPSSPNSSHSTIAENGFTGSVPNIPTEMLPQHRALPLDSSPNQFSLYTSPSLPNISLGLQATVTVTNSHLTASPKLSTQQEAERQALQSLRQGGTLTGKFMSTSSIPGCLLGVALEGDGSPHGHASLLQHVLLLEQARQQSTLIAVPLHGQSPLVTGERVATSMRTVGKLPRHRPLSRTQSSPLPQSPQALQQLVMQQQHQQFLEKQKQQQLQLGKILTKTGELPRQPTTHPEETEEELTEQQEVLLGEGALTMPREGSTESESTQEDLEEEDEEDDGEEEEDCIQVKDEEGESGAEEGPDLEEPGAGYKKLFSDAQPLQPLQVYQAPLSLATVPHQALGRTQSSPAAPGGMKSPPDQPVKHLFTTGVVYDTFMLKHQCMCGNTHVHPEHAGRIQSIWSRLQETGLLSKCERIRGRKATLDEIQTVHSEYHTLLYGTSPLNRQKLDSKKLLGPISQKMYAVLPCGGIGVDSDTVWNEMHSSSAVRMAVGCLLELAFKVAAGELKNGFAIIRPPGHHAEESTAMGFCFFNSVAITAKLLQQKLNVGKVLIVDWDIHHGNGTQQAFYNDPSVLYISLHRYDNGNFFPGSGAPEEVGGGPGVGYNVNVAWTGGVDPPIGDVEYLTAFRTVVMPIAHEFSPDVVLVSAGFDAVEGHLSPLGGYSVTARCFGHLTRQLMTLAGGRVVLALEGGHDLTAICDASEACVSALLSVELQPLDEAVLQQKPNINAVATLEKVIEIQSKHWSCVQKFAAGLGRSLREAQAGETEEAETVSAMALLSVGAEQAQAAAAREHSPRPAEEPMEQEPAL

Histone deacetylase 2 = Histone deacetylase 2 (Homo sapiens, UniProt Q92769); assay: Inhibition of human HDAC2 expressed in baculovirus expression system in Sf9 cells using RHKKAc (379 to 382 residues) fluorogenic peptide as substrate and measured after 2 hrs by fluorescence based analysis
Chain of Histone deacetylase 2 (Q92769 whole entry, the tested form may be a part): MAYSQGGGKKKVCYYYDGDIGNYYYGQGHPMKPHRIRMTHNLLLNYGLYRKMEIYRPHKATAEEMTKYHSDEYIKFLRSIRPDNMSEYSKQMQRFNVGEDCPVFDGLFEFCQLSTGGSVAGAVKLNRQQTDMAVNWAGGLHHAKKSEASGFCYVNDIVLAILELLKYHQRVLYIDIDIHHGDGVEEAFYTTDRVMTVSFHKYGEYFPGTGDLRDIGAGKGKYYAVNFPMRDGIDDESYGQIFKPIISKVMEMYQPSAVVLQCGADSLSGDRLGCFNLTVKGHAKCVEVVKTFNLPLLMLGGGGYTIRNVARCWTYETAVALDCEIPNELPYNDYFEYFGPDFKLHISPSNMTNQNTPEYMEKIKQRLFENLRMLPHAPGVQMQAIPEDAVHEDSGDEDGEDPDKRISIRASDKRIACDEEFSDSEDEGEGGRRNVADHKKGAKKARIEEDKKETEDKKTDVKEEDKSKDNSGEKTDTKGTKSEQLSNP

[8] = Antiproliferative activity against human Pulmonary fibroblast cells assessed as reduction in cell viability incubated for 3 days by CCK-8 assay; type: functional, cell-based; details: 72 h
Histone deacetylase 1 = Histone deacetylase 1 (Homo sapiens, UniProt Q13547); assay: Inhibition of human HDAC1 expressed in baculovirus expression system in Sf9 cells using RHKKAc (379 to 382 residues) fluorogenic peptide as substrate and measured after 2 hrs by fluorescence based analysis
Chain of Histone deacetylase 1 (Q13547 whole entry, the tested form may be a part): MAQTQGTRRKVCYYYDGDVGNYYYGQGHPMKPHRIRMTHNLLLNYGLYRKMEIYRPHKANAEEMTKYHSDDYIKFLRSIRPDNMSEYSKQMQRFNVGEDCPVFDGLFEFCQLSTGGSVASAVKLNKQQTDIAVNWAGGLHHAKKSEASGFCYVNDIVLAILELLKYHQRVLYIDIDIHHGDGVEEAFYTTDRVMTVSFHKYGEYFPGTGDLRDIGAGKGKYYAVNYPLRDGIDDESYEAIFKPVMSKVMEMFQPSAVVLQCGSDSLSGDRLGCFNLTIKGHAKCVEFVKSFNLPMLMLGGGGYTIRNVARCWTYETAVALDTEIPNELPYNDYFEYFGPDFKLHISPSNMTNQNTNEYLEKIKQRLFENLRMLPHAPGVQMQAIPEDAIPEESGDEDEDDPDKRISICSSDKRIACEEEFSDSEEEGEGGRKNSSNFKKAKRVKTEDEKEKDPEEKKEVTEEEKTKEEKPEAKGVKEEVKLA

in vitro [9] = details: human, Caco-2
Description: Apparent permeability across apical to basolateral side in human Caco-2 cells at 10 uM preincubated for 10mins followed by compound addition and measured after 90 mins by LC-MS/MS analysis

Row | Structure (SMILES) | IC50 (NIH3T3 [1]) [µM] | MEC (NIH3T3 [2]) [µM] | IC50 [4] [µM] | IC50 (Histone deacetylase 8) [µM] | IC50 (Histone deacetylase 1) [µM] | further results
1 | CCc1nc2c(Cc3ccc(C(=O)NO)cc3)cccc2c(=O)n1CCc1ccccc1 | 338 | 0.4 |  |  |  | 
2 | Cc1nc2cc(/C=C/C(=O)NO)ccc2c(=O)n1-c1ccccc1 | > 40 | 20 | 0.062 | 1.55 |  | IC50 (Histone deacetylase 9): 30 µM; IC50 (Histone deacetylase 3): 1.59 µM; half-life at 1 h, 200 µM (in vitro [3]; microsomes): > 3.11 h; IC50 (Histone deacetylase 4): 30 µM; IC50 (Histone deacetylase 11): 4.7 µM; MEC [5]: 10 µM; remaining at 1 h, 200 µM ([6]; microsomes): 89.6%; CLint scaled at 1 h, 200 µM (in vitro [7]; microsomes): < 0.366 L/h/kg; IC50 (Histone deacetylase 5): 8.41 µM; IC50 (Histone deacetylase 2): 7.38 µM; IC50 [8]: > 40 µM
3 | O=C(NO)c1ccc(Cn2c(=O)n(CCc3ccccc3)c(=O)c3cc(Cl)ccc32)cc1 | 3.79 | 0.81 |  |  |  | 
4 | O=C(NO)c1ccc(Cn2c(=O)n(CCc3ccccc3)c(=O)c3ccc(C(F)(F)F)cc32)cc1 | 4.23 | 1.24 |  |  |  | 
5 | O=C(NO)c1ccc(Cn2c(=O)n(CCc3ccccc3)c(=O)c3ccccc32)cc1 | 5.1 | 2.88 |  |  | > 10 | 
6 | COc1ccccc1CCn1c(=O)c2ccccc2n(Cc2ccc(C(=O)NO)cc2)c1=O | 9.55 |  |  |  |  | 
7 | O=C(NO)c1ccc(Cn2c(=O)[nH]c(=O)c3cc(Br)ccc32)cc1 | 757 | 6.05 | 0.018 | 0.371 | 4.28 | 
8 | O=C(NO)c1ccc(Cn2c(=O)n(CCc3ccccc3O)c(=O)c3ccccc32)cc1 | 9.95 | 4.94 |  |  |  | 
9 | O=C(NO)c1ccc(Cn2c(=O)[nH]c(=O)c3ccc(C(F)(F)F)cc32)cc1 | 16 | 4.72 | 0.058 | 0.302 | 5.18 | 
10 | O=C(CCn1c(=O)n(CCc2ccccc2)c(=O)c2ccccc21)NO | 7.14 | 1.14 | 0.798 | 0.454 | > 10 | 
11 | O=C(NO)c1ccc(Cn2c(=O)[nH]c(=O)c3ccc(F)cc32)cc1 | 15.3 | 2.7 | 0.0016 | 0.154 | 0.423 | 
12 | O=C(NO)c1ccc(Cn2c(=O)[nH]c(=O)c3cc(F)ccc32)cc1 | 4.76 |  | 0.006 | 0.222 | 1.27 | 
13 | Cc1nc2ccc(/C=C/CC(=O)NO)cc2c(=O)n1-c1ccccc1 | > 40 | 10 | 0.168 | 3.73 | 17.3 | half-life at 1 h, 200 µM (in vitro [3]; microsomes): > 3.11 h; MEC [5]: 10 µM; remaining at 1 h, 200 µM ([6]; microsomes): 84.3%; CLint scaled at 1 h, 200 µM (in vitro [7]; microsomes): < 0.366 L/h/kg; IC50 [8]: > 40 µM
14 | O=C(CCn1c(=O)n(Cc2ccccc2)c(=O)c2ccc(Cl)cc21)NO | 9.12 | 2.9 | 0.047 |  | > 10 | 
15 | O=C(NO)c1ccc(Cn2c(=O)n(CCc3ccccc3)c(=O)c3ccccc32)c(F)c1 | 10.1 | 0.73 | 0.108 | 0.255 | 14.5 | 
16 | O=C(NO)c1ccc(Cn2c(=O)[nH]c(=O)c3c(Cl)cccc32)cc1 | 23.3 | 12 | 0.013 | 0.281 | 3.32 | 
17 | O=C(CS)Nc1ccc(Cn2c(=O)[nH]c(=O)c3cccc(Cl)c32)cc1 |  |  | 0.0053 |  |  | 
18 | O=C(NO)c1ccc(/C=C/c2nc3ccccc3c(=O)[nH]2)cc1 | 5.02 | 2.27 | 0.028 | 0.325 | 16.2 | Papp A→B at 1.5 h, 10 µM (in vitro [9]): 3 nm/s; half-life at 1 h, 200 µM (in vitro [3]; liver microsomes): 1.26 h; MEC [5]: 10 µM; remaining at 1 h, 200 µM ([6]; liver microsomes): 58.1%; CLint scaled at 1 h, 200 µM (in vitro [7]; liver microsomes): 0.63 L/h/kg; IC50 [8]: > 40 µM
19 | O=C(NO)c1cccc(Cn2c(=O)[nH]c(=O)c3cccc(Cl)c32)c1 | > 40 | 10 | 5.95 | 0.966 | > 30 | 
20 | CCc1nc2ccc(/C=C/CC(=O)NO)cc2c(=O)n1-c1ccccc1 | > 40 | 10 | 0.285 | 3.69 | 15.9 | 
21 | Cn1c(CCC(=O)NO)nc2ccccc2c1=O |  |  | 22 | 10.4 | > 30 | 
22 | N#Cc1ccc2c(=O)n(CCc3ccccc3)c(=O)n(Cc3ccc(C(=O)NO)cc3)c2c1 | 735 | 4.5 |  | 0.13 |  | 
23 | O=C(NO)c1ccc(-c2nc3ccccc3c(=O)[nH]2)cc1 | > 40 | 10 | 0.317 | 1.62 | > 30 | MEC [5]: 5 µM; IC50 [8]: > 40 µM
24 | O=C(NO)c1ccc(Cn2c(=O)[nH]c(=O)c3cccc(Cl)c32)cc1 | 18.6 | 9.7 | 0.01 | 0.137 | 0.19 | Papp A→B at 1.5 h, 10 µM (in vitro [9]): 14 nm/s; IC50 (Histone deacetylase 9): 0.431 µM; IC50 (Histone deacetylase 3): 0.302 µM; half-life at 1 h, 200 µM (in vitro [3]; liver microsomes): > 3.11 h; IC50 (Histone deacetylase 4): 0.516 µM; IC50 (Histone deacetylase 11): 0.812 µM; MEC [5]: 10 µM; remaining at 1 h, 200 µM ([6]; liver microsomes): 100%; CLint scaled at 1 h, 200 µM (in vitro [7]; liver microsomes): < 0.366 L/h/kg; IC50 (Histone deacetylase 5): 0.211 µM; IC50 (Histone deacetylase 2): 0.378 µM; IC50 [8]: 8.82 µM
25 | COc1ccc2c(c1)[C@]13CCCC[C@@H]1[C@H](C2)N(C)CC3 [DEXTROMETHORPHAN] |  |  |  |  |  | half-life at 1 h, 200 µM (in vitro [3]; liver microsomes): 0.582 h; remaining at 1 h, 200 µM ([6]; liver microsomes): 30.4%; CLint scaled at 1 h, 200 µM (in vitro [7]; liver microsomes): 0.858 L/h/kg
